Assay results published in ChEMBL document CHEMBL5113453, “Design, synthesis, and biological evaluation of a new series of pyrazole derivatives: Discovery of potent and selective JNK3 kinase inhibitors” (Bioorg Med Chem, 2022).

Experiments:
BT-549 = assay: Antiproliferative activity against human BT-549 cells measured after 48 hrs by SRB assay; format: functional, cell-based; conditions: for IC50: BT-549, 48 h; for TGI: BT-549, time 48 hrs
SF-268 = assay: Antiproliferative activity against human SF-268 cells measured after 48 hrs by SRB assay; format: functional, cell-based; conditions: for IC50: SF-268, 48 h; for TGI: SF-268, time 48 hrs
IGROV-1 = assay: Antiproliferative activity against human IGROV-1 cells measured after 48 hrs by SRB assay; format: functional, cell-based; conditions: for IC50: IGROV-1, 48 h; for TGI: IGROV-1, time 48 hrs
SK-MEL-28 = assay: Antiproliferative activity against human SK-MEL-28 cells measured after 48 hrs by SRB assay; format: functional, cell-based; conditions: for IC50: SK-MEL-28, 48 h; for TGI: SK-MEL-28, time 48 hrs
HOP-92 = assay: Antiproliferative activity against human HOP-92 cells measured after 48 hrs by SRB assay; format: functional, cell-based; conditions: for IC50: HOP-92, 48 h; for TGI: HOP-92, time 48 hrs
786-0 = assay: Antiproliferative activity against human 786-0 cells measured after 48 hrs by SRB assay; format: functional, cell-based; conditions: for IC50: 786-0, 48 h; for TGI: 786-0, time 48 hrs
K562 = assay: Antiproliferative activity against human K562 cells measured after 48 hrs by SRB assay; format: functional, cell-based; conditions: for IC50: K562, 48 h; for TGI: K562, time 48 hrs
T47D = assay: Antiproliferative activity against human T47D cells measured after 48 hrs by SRB assay; format: functional, cell-based; conditions: for IC50: 48 h; for TGI: time 48 hrs
Hep 3B2 = assay: Antiproliferative activity against human Hep3B cells measured by MTT assay; format: functional, cell-based
NCI-H226 = assay: Antiproliferative activity against human NCI-H226 cells measured after 48 hrs by SRB assay; format: functional, cell-based; conditions: for IC50: NCI-H226, 48 h; for TGI: NCI-H226, time 48 hrs
A498 = assay: Antiproliferative activity against human A498 cells measured after 48 hrs by SRB assay; format: functional, cell-based; conditions: for IC50: A498, 48 h; for TGI: A498, time 48 hrs
HepG2 = assay: Antiproliferative activity against human HepG2 cells measured by MTT assay; format: functional, cell-based
SNB-75 = assay: Antiproliferative activity against human SNB-75 cells measured after 48 hrs by SRB assay; format: functional, cell-based; conditions: for IC50: SNB-75, 48 h; for TGI: SNB-75, time 48 hrs
SF-295 = assay: Antiproliferative activity against human SF-295 cells measured after 48 hrs by SRB assay; format: functional, cell-based; conditions: for IC50: SF-295, 48 h; for TGI: SF-295, time 48 hrs
RPMI-8226 [1] = assay: Induction of necrosis in human RPMI-8226 cells assessed as LDH release at 6.12 uM; format: functional
NCI-H322M = assay: Antiproliferative activity against human NCI-H322M cells measured after 48 hrs by SRB assay; format: functional, cell-based; conditions: for IC50: 48 h; for TGI: time 48 hrs
NCI-H460 = assay: Antiproliferative activity against human NCI-H460 cells measured after 48 hrs by SRB assay; format: functional, cell-based; conditions: for IC50: NCI-H460, 48 h; for TGI: NCI-H460, time 48 hrs
EKVX = assay: Antiproliferative activity against human EKVX cells measured after 48 hrs by SRB assay; format: functional, cell-based; conditions: for IC50: 48 h; for TGI: time 48 hrs
UACC-257 = assay: Antiproliferative activity against human UACC-257 cells measured after 48 hrs by SRB assay; format: functional, cell-based; conditions: for IC50: UACC-257, 48 h; for TGI: UACC-257, time 48 hrs
SF-539 = assay: Antiproliferative activity against human SF-539 cells measured after 48 hrs by SRB assay; format: functional, cell-based; conditions: for IC50: SF-539, 48 h; for TGI: SF-539, time 48 hrs
HOP-62 = assay: Antiproliferative activity against human HOP-62 cells measured after 48 hrs by SRB assay; format: functional, cell-based; conditions: for IC50: HOP-62, 48 h; for TGI: HOP-62, time 48 hrs
NCI/ADR-RES = assay: Antiproliferative activity against human NCI-ADR-RES cells measured after 48 hrs by SRB assay; format: functional, cell-based; conditions: for IC50: 48 h; for TGI: time 48 hrs
UACC-62 = assay: Antiproliferative activity against human UACC-62 cells measured after 48 hrs by SRB assay; format: functional, cell-based; conditions: for IC50: UACC-62, 48 h; for TGI: UACC-62, time 48 hrs
KM12 = assay: Antiproliferative activity against human KM12 cells measured after 48 hrs by SRB assay; format: functional, cell-based; conditions: for IC50: KM12, 48 h; for TGI: KM12, time 48 hrs
RPMI-8226 [2] = assay: Induction of apoptosis in human RPMI-8226 cells assessed as fold increase in caspase-3/7 activity at 0.73 uM; format: functional
[3] = target: T1, Mitogen-activated protein kinase 10 (Homo sapiens, UniProt P53779); assay: Inhibition of JNK3 (unknown origin) at 1 uM relative to control
T1 sequence (P53779 whole entry): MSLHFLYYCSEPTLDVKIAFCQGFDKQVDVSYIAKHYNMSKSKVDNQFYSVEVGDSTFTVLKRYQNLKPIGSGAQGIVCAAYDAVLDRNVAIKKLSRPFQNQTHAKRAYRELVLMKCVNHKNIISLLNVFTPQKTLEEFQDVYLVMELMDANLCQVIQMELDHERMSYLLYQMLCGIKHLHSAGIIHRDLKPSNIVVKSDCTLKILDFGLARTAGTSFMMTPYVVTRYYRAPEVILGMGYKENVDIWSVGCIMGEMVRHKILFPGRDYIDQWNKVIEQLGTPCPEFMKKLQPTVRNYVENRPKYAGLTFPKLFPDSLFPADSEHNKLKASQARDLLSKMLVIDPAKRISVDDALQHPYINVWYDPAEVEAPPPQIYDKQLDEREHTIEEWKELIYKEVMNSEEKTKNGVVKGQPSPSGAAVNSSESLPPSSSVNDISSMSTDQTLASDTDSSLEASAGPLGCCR

U-251 = assay: Antiproliferative activity against human U-251 cells measured after 48 hrs by SRB assay; format: functional, cell-based; conditions: for IC50: U-251, 48 h; for TGI: U-251, time 48 hrs
RPMI-8226 [4] = assay: Induction of apoptosis in human RPMI-8226 cells assessed as fold increase in caspase-3/7 activity at 6.12 uM; format: functional
[5] = target: T2, Mitogen-activated protein kinase 8 (Homo sapiens, UniProt P45983); assay: Inhibition of JNK1-alpha-1 (unknown origin)
T2 sequence (P45983 whole entry): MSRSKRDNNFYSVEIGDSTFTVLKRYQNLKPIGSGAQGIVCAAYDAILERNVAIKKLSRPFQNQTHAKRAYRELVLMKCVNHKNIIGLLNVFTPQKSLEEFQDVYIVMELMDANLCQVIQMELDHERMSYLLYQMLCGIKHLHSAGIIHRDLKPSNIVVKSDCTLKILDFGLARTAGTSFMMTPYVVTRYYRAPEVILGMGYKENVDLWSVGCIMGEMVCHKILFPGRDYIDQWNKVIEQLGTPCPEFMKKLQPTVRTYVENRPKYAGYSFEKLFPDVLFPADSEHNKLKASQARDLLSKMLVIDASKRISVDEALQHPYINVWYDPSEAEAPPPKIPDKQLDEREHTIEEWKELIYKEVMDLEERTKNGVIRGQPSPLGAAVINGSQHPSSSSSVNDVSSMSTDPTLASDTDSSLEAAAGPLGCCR

[6] = target: T2, Mitogen-activated protein kinase 8; assay: Inhibition of JNK1-alpha-1 (unknown origin) at 1 uM relative to control
[7] = target: T3, Mitogen-activated protein kinase 9 (Homo sapiens, UniProt P45984); assay: Inhibition of JNK2-alpha-2 (unknown origin)
Target sequence in this assay (P45984 whole entry): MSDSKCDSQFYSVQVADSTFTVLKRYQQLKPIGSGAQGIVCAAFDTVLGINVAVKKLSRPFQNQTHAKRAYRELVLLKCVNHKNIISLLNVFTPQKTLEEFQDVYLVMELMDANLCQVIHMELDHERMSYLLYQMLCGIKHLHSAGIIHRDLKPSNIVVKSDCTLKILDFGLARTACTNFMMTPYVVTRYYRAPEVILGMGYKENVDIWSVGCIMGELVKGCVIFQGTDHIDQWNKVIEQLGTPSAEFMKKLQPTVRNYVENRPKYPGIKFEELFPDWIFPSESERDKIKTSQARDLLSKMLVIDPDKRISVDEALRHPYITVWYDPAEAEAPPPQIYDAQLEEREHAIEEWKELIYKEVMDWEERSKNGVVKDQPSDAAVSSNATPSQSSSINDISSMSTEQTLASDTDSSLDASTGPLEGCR

Cytochrome P450 2D6 = Cytochrome P450 2D6 (Homo sapiens, UniProt P10635); assay: Inhibition of CYP2D6 (unknown origin) using EOMCC as a substrate; format: ADME
Cytochrome P450 2D6, sequence (P10635 whole entry): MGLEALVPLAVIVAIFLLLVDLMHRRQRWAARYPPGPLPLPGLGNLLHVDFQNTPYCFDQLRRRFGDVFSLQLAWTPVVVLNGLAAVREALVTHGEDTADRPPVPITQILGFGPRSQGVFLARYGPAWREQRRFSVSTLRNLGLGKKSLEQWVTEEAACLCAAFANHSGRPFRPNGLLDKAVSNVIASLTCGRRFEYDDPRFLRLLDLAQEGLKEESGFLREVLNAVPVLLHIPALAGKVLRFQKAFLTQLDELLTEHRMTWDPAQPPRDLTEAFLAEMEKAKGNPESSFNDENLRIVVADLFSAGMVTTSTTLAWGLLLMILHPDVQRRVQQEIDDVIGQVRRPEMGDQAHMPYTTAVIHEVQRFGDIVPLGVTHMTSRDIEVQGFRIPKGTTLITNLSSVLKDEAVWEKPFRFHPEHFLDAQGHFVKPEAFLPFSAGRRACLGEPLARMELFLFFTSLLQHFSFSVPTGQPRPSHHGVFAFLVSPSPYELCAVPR

[8] = target: T3, Mitogen-activated protein kinase 9; assay: Inhibition of JNK2-alpha-2 (unknown origin) at 1 uM relative to control
Target sequence in this assay (P45984 whole entry, looked up): as the sequence (P45984 whole entry) above

RPMI-8226 [9] = assay: Induction of necrosis in human RPMI-8226 cells assessed as LDH release at 0.87 uM; format: functional
RPMI-8226 [10] = assay: Induction of apoptosis in human RPMI-8226 cells assessed as fold increase in caspase-3/7 activity at 5.47 uM; format: functional
[11] = target: T4, Vascular endothelial growth factor receptor 3 (Homo sapiens, UniProt P35916); assay: Inhibition of FLT4 (unknown origin)
T4 sequence (P35916 whole entry): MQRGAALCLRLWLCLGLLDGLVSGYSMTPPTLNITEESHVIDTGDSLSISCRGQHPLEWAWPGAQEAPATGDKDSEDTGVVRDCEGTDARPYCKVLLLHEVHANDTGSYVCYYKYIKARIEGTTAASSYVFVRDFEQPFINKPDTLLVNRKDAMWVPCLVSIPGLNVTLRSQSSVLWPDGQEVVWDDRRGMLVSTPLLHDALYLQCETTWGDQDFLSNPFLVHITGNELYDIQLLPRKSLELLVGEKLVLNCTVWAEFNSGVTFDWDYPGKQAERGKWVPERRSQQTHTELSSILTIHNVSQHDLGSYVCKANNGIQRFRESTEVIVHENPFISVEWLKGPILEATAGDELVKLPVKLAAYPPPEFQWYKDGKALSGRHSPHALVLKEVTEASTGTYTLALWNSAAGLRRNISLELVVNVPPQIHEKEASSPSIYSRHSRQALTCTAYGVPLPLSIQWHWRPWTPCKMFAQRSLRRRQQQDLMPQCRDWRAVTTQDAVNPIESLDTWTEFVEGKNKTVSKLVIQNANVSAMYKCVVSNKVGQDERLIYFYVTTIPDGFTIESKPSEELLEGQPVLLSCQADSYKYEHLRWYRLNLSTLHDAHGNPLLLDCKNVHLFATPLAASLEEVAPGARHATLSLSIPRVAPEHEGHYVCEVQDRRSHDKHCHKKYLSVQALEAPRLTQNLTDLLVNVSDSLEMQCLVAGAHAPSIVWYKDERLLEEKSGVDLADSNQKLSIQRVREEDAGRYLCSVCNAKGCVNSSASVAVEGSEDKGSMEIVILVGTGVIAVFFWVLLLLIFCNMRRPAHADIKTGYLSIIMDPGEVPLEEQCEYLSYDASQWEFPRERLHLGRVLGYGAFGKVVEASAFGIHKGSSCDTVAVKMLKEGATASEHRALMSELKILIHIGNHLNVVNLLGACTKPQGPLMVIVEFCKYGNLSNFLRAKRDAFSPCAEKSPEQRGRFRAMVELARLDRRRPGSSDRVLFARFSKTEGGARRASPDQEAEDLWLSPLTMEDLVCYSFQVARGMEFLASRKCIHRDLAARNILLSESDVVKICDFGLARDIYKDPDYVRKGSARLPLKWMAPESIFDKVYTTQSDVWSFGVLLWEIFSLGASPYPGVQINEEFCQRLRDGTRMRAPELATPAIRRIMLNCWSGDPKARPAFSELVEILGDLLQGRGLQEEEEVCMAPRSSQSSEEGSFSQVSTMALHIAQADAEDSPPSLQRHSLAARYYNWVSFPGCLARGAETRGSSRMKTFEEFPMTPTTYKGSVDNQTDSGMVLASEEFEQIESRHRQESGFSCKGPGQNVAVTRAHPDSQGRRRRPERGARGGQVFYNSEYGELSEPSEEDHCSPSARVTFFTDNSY

RPMI-8226 [12] = assay: Induction of necrosis in human RPMI-8226 cells assessed as LDH release at 5.47 uM; format: functional
Cytochrome P450 3A4 = Cytochrome P450 3A4 (Homo sapiens, UniProt P08684); assay: Inhibition of CYP3A4 (unknown origin) using BOMCC as a substrate; format: ADME
Cytochrome P450 3A4, sequence (P08684 whole entry): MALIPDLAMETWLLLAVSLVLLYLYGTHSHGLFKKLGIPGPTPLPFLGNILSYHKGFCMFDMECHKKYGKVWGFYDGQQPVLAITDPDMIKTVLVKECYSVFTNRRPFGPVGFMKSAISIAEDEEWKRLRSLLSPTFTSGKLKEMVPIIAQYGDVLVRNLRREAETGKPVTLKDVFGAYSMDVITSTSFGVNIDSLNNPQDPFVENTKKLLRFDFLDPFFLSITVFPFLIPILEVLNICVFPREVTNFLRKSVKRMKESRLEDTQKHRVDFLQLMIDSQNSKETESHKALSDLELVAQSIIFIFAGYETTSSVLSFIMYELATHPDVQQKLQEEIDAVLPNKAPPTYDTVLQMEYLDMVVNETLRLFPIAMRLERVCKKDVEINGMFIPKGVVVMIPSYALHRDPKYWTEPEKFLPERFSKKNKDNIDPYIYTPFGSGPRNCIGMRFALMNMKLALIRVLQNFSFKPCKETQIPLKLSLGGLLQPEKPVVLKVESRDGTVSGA

[13] = target: T4, Vascular endothelial growth factor receptor 3; assay: Inhibition of FLT4 (unknown origin) at 1 uM relative to control
[14] = target: T1, Mitogen-activated protein kinase 10; assay: Inhibition of JNK3 in human HEK293 cells transfected with JNK3-NanoLuc fusion vector measured after 1 hr by NanoBRET assay; format: cell-based
[15] = tested on: Serine/threonine-protein kinase B-raf (Homo sapiens), P15056 [V600E]; assay: Inhibition of B-RAF V600E mutant (unknown origin) at 1 uM relative to control
Serine/threonine-protein kinase B-raf (Homo sapiens), P15056 [V600E], sequence (P15056 whole entry V600E): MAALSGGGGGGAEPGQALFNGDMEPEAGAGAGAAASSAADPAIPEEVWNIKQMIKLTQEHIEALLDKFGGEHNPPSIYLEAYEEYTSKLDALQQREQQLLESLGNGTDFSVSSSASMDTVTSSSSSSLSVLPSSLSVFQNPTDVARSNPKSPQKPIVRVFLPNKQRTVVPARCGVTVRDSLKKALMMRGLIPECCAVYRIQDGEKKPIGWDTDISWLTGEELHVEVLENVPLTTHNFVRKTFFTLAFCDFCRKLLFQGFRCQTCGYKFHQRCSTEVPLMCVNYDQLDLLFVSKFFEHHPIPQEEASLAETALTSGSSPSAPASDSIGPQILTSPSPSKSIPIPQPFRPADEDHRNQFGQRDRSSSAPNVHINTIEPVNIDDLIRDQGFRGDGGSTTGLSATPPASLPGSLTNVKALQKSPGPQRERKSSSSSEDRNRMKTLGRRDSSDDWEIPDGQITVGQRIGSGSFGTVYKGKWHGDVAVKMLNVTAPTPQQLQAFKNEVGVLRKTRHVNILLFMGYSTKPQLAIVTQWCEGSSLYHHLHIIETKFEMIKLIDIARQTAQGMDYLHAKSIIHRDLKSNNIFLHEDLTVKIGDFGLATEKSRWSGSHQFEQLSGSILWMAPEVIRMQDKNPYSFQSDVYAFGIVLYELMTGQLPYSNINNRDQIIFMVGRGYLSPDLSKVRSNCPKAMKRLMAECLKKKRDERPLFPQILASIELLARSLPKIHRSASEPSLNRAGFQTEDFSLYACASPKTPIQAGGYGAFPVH

RPMI-8226 [16] = assay: Induction of apoptosis in human RPMI-8226 cells assessed as fold increase in caspase-3/7 activity at 0.87 uM; format: functional
Homo sapiens = species: Homo sapiens; assay: Ratio IC50 for inhibition of FLT4 (unknown origin) over IC50 for JNK3 (unknown origin)

## O=C(NCCCNc1cc(-c2cn(-c3ccccc3)nc2-c2cccc(O)c2)ccn1)Nc1cccc(C(F)(F)F)c1
BT-549
  IC50: 3.26 µM
  TGI: 7.63 µM
SF-268
  IC50: 3.26 µM
  TGI: 9.69 µM
IGROV-1
  IC50: 2.83 µM
  TGI: 7.98 µM
SK-MEL-28
  IC50: 3.48 µM
  TGI: 7.51 µM
HOP-92
  IC50: 1.25 µM
  TGI: 6.01 µM
786-0
  IC50: 1.07 µM
  TGI: 3.71 µM
K562
  IC50: 1.26 µM
  TGI: > 14.5 µM
T47D
  IC50: 3.42 µM
  TGI: 16.7 µM
Hep 3B2
  IC50: 4.9 µM
NCI-H226
  IC50: 4.88 µM
  TGI: 11.5 µM
A498
  IC50: 3.17 µM
  TGI: 7.18 µM
HepG2
  IC50: 6.42 µM
SNB-75
  IC50: 0.74 µM
  TGI: 4.1 µM
SF-295
  IC50: 1.76 µM
  TGI: 6.42 µM
RPMI-8226 [1]
  Activity: 34.5%
NCI-H322M
  IC50: 4.24 µM
  TGI: 9.32 µM
NCI-H460
  IC50: 3.48 µM
  TGI: 8.89 µM
EKVX
  IC50: 3.5 µM
  TGI: 8.45 µM
UACC-257
  IC50: 4.8 µM
  TGI: 10.1 µM
SF-539
  IC50: 2.78 µM
  TGI: 7.18 µM
HOP-62
  IC50: 4.09 µM
  TGI: 9.59 µM
NCI/ADR-RES
  IC50: 4.9 µM
  TGI: 12.8 µM
UACC-62
  IC50: 4.41 µM
  TGI: 8.84 µM
KM12
  IC50: 2.63 µM
  TGI: 7.39 µM
RPMI-8226 [2]
  fold change (FC): 1.96
[3]
  inhibition: 73%
U-251
  IC50: 2.57 µM
  TGI: 7.45 µM
RPMI-8226 [4]
  fold change (FC): 2.83

## O=C(NCCCNc1cc(-c2cn(-c3ccccc3)nc2-c2cccc(O)c2)ccn1)Nc1ccc(F)cc1
[5]
  IC50: 1 µM
BT-549
  IC50: 2.18 µM
  TGI: 11.6 µM
SF-268
  IC50: 2.61 µM
  TGI: 11.2 µM
[6]
  inhibition: 52%
[7]
  IC50: 1 µM
IGROV-1
  IC50: 1.23 µM
  TGI: 5.82 µM
SK-MEL-28
  IC50: 2.54 µM
  TGI: 5.64 µM
HOP-92
  IC50: 0.86 µM
  TGI: 4.97 µM
Cytochrome P450 2D6
  IC50: 5.54 µM
[8]
  inhibition: 53%
786-0
  IC50: 0.86 µM
  TGI: 3.61 µM
K562
  IC50: 0.81 µM
  TGI: > 14.2 µM
T47D
  IC50: 1.89 µM
  TGI: 11 µM
NCI-H226
  IC50: 3.39 µM
  TGI: 8.91 µM
A498
  IC50: 1.21 µM
  TGI: 4.96 µM
SNB-75
  IC50: 0.54 µM
  TGI: 3.18 µM
SF-295
  IC50: 1.38 µM
  TGI: 4.84 µM
RPMI-8226 [9]
  Activity: 8.5%
RPMI-8226 [10]
  fold change (FC): 2.75
NCI-H322M
  IC50: 3.7 µM
  TGI: 12.4 µM
NCI-H460
  IC50: 2.35 µM
  TGI: 5.88 µM
EKVX
  IC50: 2.74 µM
  TGI: 9.51 µM
UACC-257
  IC50: 3.07 µM
  TGI: 7.54 µM
SF-539
  IC50: 1.98 µM
  TGI: 5.38 µM
[11]
  IC50: 0.791 µM
HOP-62
  IC50: 3.24 µM
  TGI: 9.26 µM
RPMI-8226 [12]
  Activity: 32.4%
Cytochrome P450 3A4
  IC50: 18.7 µM
[13]
  inhibition: 84%
[14]
  IC50: 3.84 µM
NCI/ADR-RES
  IC50: 3.51 µM
  TGI: 12.5 µM
[15]
  inhibition: 4%
UACC-62
  IC50: 3.14 µM
  TGI: 6.6 µM
KM12
  IC50: 2.61 µM
  TGI: 5.79 µM
[3]
  inhibition: 94%
U-251
  IC50: 2.05 µM
  TGI: 7.55 µM
RPMI-8226 [16]
  fold change (FC): 1.84
Homo sapiens
  Ratio IC50: 8.2
